Data: patent US10336730B2, “Substituted glycine derived FXIA inhibitors” (BRISTOL-MYERS SQUIBB COMPANY, priority 2015, dated 2019)

Each compound was assayed against T1, purified human Factor XIa (Homo sapiens, UniProt P03951) (assay: Factor XIa enzyme inhibition assay (chromogenic substrate S-2366), Ki). Details: substrate S-2366, pH 7.4.
T1 construct: purchased Haematologic Technologies
Type: biochemical
In short: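 Purified human Factor XIa ([…] final) with chromogenic substrate S-2366 (0.0002-0.001 M) in 50 mM HEPES pH 7.4, 145 mM NaCl, 5 mM KCl, 0.1% PEG 8000. Velocities measured over 20-180 minutes with and without inhibitor; Ki derived assuming competitive inhibition, e.g. Ki=IC50/(1+S/Km).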

T1 sequence (P03951 388-625 limits assumed): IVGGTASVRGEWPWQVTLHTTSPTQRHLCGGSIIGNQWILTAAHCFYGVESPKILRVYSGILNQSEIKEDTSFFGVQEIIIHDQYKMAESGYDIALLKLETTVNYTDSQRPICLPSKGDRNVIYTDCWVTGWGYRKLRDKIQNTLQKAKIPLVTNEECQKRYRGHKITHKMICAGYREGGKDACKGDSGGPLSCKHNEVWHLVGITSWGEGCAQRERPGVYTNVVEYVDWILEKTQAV
T1 sequence (P03951 19-387 partner limits assumed): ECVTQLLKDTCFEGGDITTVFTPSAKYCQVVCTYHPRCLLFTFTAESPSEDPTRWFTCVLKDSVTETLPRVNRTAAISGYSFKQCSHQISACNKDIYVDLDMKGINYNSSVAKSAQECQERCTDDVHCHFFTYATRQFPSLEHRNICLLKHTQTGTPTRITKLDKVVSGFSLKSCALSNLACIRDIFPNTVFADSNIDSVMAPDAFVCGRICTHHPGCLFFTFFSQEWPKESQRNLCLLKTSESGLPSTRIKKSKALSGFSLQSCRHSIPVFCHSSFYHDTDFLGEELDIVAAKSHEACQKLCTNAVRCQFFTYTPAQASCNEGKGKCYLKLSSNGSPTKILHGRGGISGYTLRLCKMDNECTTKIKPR

Row | Structure (SMILES) | Ki [nM]
1 | O=C(NCc1ccc(Cl)cc1)[C@H](Cc1ccccc1)n1cnc(-c2cc(Cl)ccc2-n2cc(Cl)nn2)cc1=O [Example 76, (S)-2-(4-(5-chloro-2-(4-chloro-1H-1,2,3-triazol-1-yl)phenyl)-6-oxopyrimidin-1(6H)-yl)-N-(4-chlorobenzyl)-3-phenylpropanamide] | 1220
2 | O=C(NCc1cccnc1)[C@H](Cc1ccccc1)n1cnc(-c2cc(Cl)ccc2-n2cc(Cl)nn2)cc1=O [Example 77, (S)-2-(4-(5-chloro-2-(4-chloro-1H-1,2,3-triazol-1-yl)phenyl)-6-oxopyrimidin-1(6H)-yl)-3-phenyl-N-(pyridin-3-ylmethyl)propanamide] | 1450
3 | O=C([C@H](Cc1ccccc1)n1cnc(-c2cc(Cl)ccc2-n2cc(Cl)nn2)cc1=O)N1CCOCC1 [Example 78, (S)-6-(5-chloro-2-(4-chloro-1H-1,2,3-triazol-1-yl)phenyl)-3-(1-morpholino-1-oxo-3-phenylpropan-2-yl)pyrimidin-4(3H)-one] | 4450
4 | Cn1ncc2cc(CNC(=O)[C@H](Cc3ccccc3)n3cnc(-c4cc(Cl)ccc4-n4cc(Cl)nn4)cc3=O)ccc21 [Example 79, (S)-2-(4-(5-chloro-2-(4-chloro-1H-1,2,3-triazol-1-yl)phenyl)-6-oxopyrimidin-1(6H)-yl)-N-((1-methyl-1H-indazol-5-yl)methyl)-3-phenylpropanamide] | 630
5 | CC(C)c1cc(CNC(=O)[C@H](Cc2ccccc2)n2cnc(-c3cc(Cl)ccc3-n3cc(Cl)nn3)cc2=O)on1 [Example 80, (S)-2-(4-(5-chloro-2-(4-chloro-1H-1,2,3-triazol-1-yl)phenyl)-6-oxopyrimidin-1(6H)-yl)-N-((3-isopropylisoxazol-5-yl)methyl)-3-phenylpropanamide] | 3780
6 | O=C([C@H](Cc1ccccc1)n1cnc(-c2cc(Cl)ccc2-n2cc(Cl)nn2)cc1=O)N1CCC(O)CC1 [Example 81, (S)-6-(5-chloro-2-(4-chloro-1H-1,2,3-triazol-1-yl)phenyl)-3-(1-(4-hydroxypiperidin-1-yl)-1-oxo-3-phenylpropan-2-yl)pyrimidin-4(3H)-one] | 4410
7 | O=C(NCCc1ncn[nH]1)[C@H](Cc1ccccc1)n1cnc(-c2cc(Cl)ccc2-n2cc(Cl)nn2)cc1=O [Example 82, (S)-N-(2-(1H-1,2,4-triazol-5-yl)ethyl)-2-(4-(5-chloro-2-(4-chloro-1H-1,2,3-triazol-1-yl)phenyl)-6-oxopyrimidin-1(6H)-yl)-3-phenylpropanamide] | 7370
8 | NS(=O)(=O)C1CCN(C(=O)[C@H](Cc2ccccc2)n2cnc(-c3cc(Cl)ccc3-n3cc(Cl)nn3)cc2=O)CC1 [Example 84, (S)-1-(2-(4-(5-chloro-2-(4-chloro-1H-1,2,3-triazol-1-yl)phenyl)-6-oxopyrimidin-1(6H)-yl)-3-phenylpropanoyl)piperidine-4-sulfonamide] | 2520
9 | COCCNC(=O)[C@H](Cc1ccccc1)n1cnc(-c2cc(Cl)ccc2-n2cc(Cl)nn2)cc1=O [Example 85, (S)-2-(4-(5-chloro-2-(4-chloro-1H-1,2,3-triazol-1-yl)phenyl)-6-oxopyrimidin-1(6H)-yl)-N-(2-methoxyethyl)-3-phenylpropanamide] | 1730
10 | CC(C)CCNC(=O)[C@H](Cc1ccccc1)n1cnc(-c2cc(Cl)ccc2-n2cc(Cl)nn2)cc1=O [Example 87, (S)-2-(4-(5-chloro-2-(4-chloro-1H-1,2,3-triazol-1-yl)phenyl)-6-oxopyrimidin-1(6H)-yl)-N-isopentyl-3-phenylpropanamide] | 210
11 | O=C(NCc1n[nH]c2c1CCCC2)[C@H](Cc1ccccc1)n1cnc(-c2cc(Cl)ccc2-n2cc(Cl)nn2)cc1=O [Example 91, (S)-2-(4-(5-chloro-2-(4-chloro-1H-1,2,3-triazol-1-yl)phenyl)-6-oxopyrimidin-1(6H)-yl)-3-phenyl-N-((4,5,6,7-tetrahydro-1H-indazol-3-yl)methyl)propanamide] | 2850
12 | N#Cc1ccc(NC(=O)[C@H](Cc2ccccc2)n2cnc(-c3cc(Cl)ccc3-n3cc(Cl)nn3)cc2=O)cc1F [Example 92, (S)-2-(4-(5-chloro-2-(4-chloro-1H-1,2,3-triazol-1-yl)phenyl)-6-oxopyrimidin-1(6H)-yl)-N-(4-cyano-3-fluorophenyl)-3-phenylpropanamide] | 126
13 | Cc1nccn1-c1ccc(NC(=O)[C@H](Cc2ccccc2)n2cnc(-c3cc(Cl)ccc3-n3cc(Cl)nn3)cc2=O)cc1 [Example 93, (S)-2-(4-(5-chloro-2-(4-chloro-1H-1,2,3-triazol-1-yl)phenyl)-6-oxopyrimidin-1(6H)-yl)-N-(4-(2-methyl-1H-imidazol-1-yl)phenyl)-3-phenylpropanamide] | 111
14 | O=C(Nc1ccc(-n2ccnc2)cc1)[C@H](Cc1ccccc1)n1cnc(-c2cc(Cl)ccc2-n2cc(Cl)nn2)cc1=O [Example 94, (S)-N-(4-(1H-imidazol-1-yl)phenyl)-2-(4-(5-chloro-2-(4-chloro-1H-1,2,3-triazol-1-yl)phenyl)-6-oxopyrimidin-1(6H)-yl)-3-phenylpropanamide] | 25.7
15 | Nc1n[nH]c2ccc(NC(=O)[C@H](Cc3ccccc3)n3cnc(-c4cc(Cl)ccc4-n4cc(Cl)nn4)cc3=O)cc12 [Example 98, (S)-N-(3-amino-1H-indazol-5-yl)-2-(4-(5-chloro-2-(4-chloro-1H-1,2,3-triazol-1-yl)phenyl)-6-oxopyrimidin-1(6H)-yl)-3-phenylpropanamide] | 554
16 | O=C([C@H](Cc1ccccc1)n1cnc(-c2cc(Cl)ccc2-n2cc(Cl)nn2)cc1=O)N1CCn2ncnc2C1 [Example 99, (S)-6-(5-chloro-2-(4-chloro-1H-1,2,3-triazol-1-yl)phenyl)-3-(1-(5,6-dihydro-[1,2,4]triazolo[1,5-a]pyrazin-7(8H)-yl)-1-oxo-3-phenylpropan-2-yl)pyrimidin-4(3H)-one] | 7370
17 | O=C(NCCc1cnccn1)[C@H](Cc1ccccc1)n1cnc(-c2cc(Cl)ccc2-n2cc(Cl)nn2)cc1=O [Example 100, (S)-2-(4-(5-chloro-2-(4-chloro-1H-1,2,3-triazol-1-yl)phenyl)-6-oxopyrimidin-1(6H)-yl)-3-phenyl-N-(2-(pyrazin-2-yl)ethyl)propanamide] | 7050
18 | O=C1OCC[C@@H]1NC(=O)[C@H](Cc1ccccc1)n1cnc(-c2cc(Cl)ccc2-n2cc(Cl)nn2)cc1=O [Example 101, (S)-2-(4-(5-chloro-2-(4-chloro-1H-1,2,3-triazol-1-yl)phenyl)-6-oxopyrimidin-1(6H)-yl)-N-((S)-2-oxotetrahydrofuran-3-yl)-3-phenylpropanamide] | 7810
19 | CC(=O)NC1CCN(C(=O)[C@H](Cc2ccccc2)n2cnc(-c3cc(Cl)ccc3-n3cc(Cl)nn3)cc2=O)CC1 [Example 102, (S)-N-(1-(2-(4-(5-chloro-2-(4-chloro-1H-1,2,3-triazol-1-yl)phenyl)-6-oxopyrimidin-1(6H)-yl)-3-phenylpropanoyl)piperidin-4-yl)acetamide] | 3050

More lines, now with the values ahead:

Row | Ki [nM] | Structure (SMILES)
20 | 1220 | COc1ccc(CNC(=O)[C@H](Cc2ccccc2)n2cnc(-c3cc(Cl)ccc3-n3cc(Cl)nn3)cc2=O)cc1 [Example 75, (S)-2-(4-(5-chloro-2-(4-chloro-1H-1,2,3-triazol-1-yl)phenyl)-6-oxopyrimidin-1(6H)-yl)-N-(4-methoxybenzyl)-3-phenylpropanamide]
21 | 3110 | Cn1ccnc1N1CCN(C(=O)[C@H](Cc2ccccc2)n2cnc(-c3cc(Cl)ccc3-n3cc(Cl)nn3)cc2=O)CC1 [Example 83, (S)-6-(5-chloro-2-(4-chloro-1H-1,2,3-triazol-1-yl)phenyl)-3-(1-(4-(1-methyl-1H-imidazol-2-yl)piperazin-1-yl)-1-oxo-3-phenylpropan-2-yl)pyrimidin-4(3H)-one]
22 | 5500 | O=C(NCCO)[C@H](Cc1ccccc1)n1cnc(-c2cc(Cl)ccc2-n2cc(Cl)nn2)cc1=O [Example 86, (S)-2-(4-(5-chloro-2-(4-chloro-1H-1,2,3-triazol-1-yl)phenyl)-6-oxopyrimidin-1(6H)-yl)-N-(2-hydroxyethyl)-3-phenylpropanamide]
23 | 5610 | O=C([C@H](Cc1ccccc1)n1cnc(-c2cc(Cl)ccc2-n2cc(Cl)nn2)cc1=O)N1CCC1 [Example 88, (S)-3-(1-(azetidin-1-yl)-1-oxo-3-phenylpropan-2-yl)-6-(5-chloro-2-(4-chloro-1H-1,2,3-triazol-1-yl)phenyl)pyrimidin-4(3H)-one]
24 | 1940 | CCCNC(=O)[C@H](Cc1ccccc1)n1cnc(-c2cc(Cl)ccc2-n2cc(Cl)nn2)cc1=O [Example 89, (S)-2-(4-(5-chloro-2-(4-chloro-1H-1,2,3-triazol-1-yl)phenyl)-6-oxopyrimidin-1(6H)-yl)-3-phenyl-N-propylpropanamide]
25 | 5920 | CN(C)CCCNC(=O)[C@H](Cc1ccccc1)n1cnc(-c2cc(Cl)ccc2-n2cc(Cl)nn2)cc1=O [Example 90, (S)-2-(4-(5-chloro-2-(4-chloro-1H-1,2,3-triazol-1-yl)phenyl)-6-oxopyrimidin-1(6H)-yl)-N-(3-(dimethylamino)propyl)-3-phenylpropanamide]
26 | 783 | CN(C)Cc1nccn1-c1ccc(NC(=O)[C@H](Cc2ccccc2)n2cnc(-c3cc(Cl)ccc3-n3cc(Cl)nn3)cc2=O)c(F)c1 [Example 95, (S)-2-(4-(5-chloro-2-(4-chloro-1H-1,2,3-triazol-1-yl)phenyl)-6-oxopyrimidin-1(6H)-yl)-N-(4-(2-((dimethylamino)methyl)-1H-imidazol-1-yl)-2-fluorophenyl)-3-phenylpropanamide]
27 | 27.8 | O=C1NCCc2cc(NC(=O)[C@H](Cc3ccccc3)n3cnc(-c4cc(Cl)ccc4-n4cc(Cl)nn4)cc3=O)ccc21 [Example 97, (S)-2-(4-(5-chloro-2-(4-chloro-1H-1,2,3-triazol-1-yl)phenyl)-6-oxopyrimidin-1(6H)-yl)-N-(1-oxo-1,2,3,4-tetrahydroisoquinolin-6-yl)-3-phenylpropanamide]
